Values quoted from earlier work in patent US7884090B2, “Compositions and methods for the treatment of arthritis” (priority 1999, dated 2011).

Experiments:
[1] = test system: Staph haemolyticus, Staph hominis, Acinetobacter Iwoffi and further listed species up to Yersinia enterocolitica; conditions: in vitro
[2] = test system: pseudomonas aeruginosa, methicillin-resistant strains of Staph. aureus and Proteus

Row | SMILES | Strains against which effective [1] | Strains against which active [2]
1 | O=C(O)c1cn(C2CC2)c2cc(N3CCNCC3)c(F)cc2c1=O [cipro, ciprofloxacin] | 90% | –
2 | CCN[C@@H]1C[C@H](N)[C@@H](O[C@H]2OC(CN)=CC[C@H]2N)[C@H](O)[C@H]1O[C@H]1OC[C@](C)(O)[C@H](NC)[C@H]1O [netilmicin] | – | 85%
